Values after ≈ are worked out from the molar mass of the structure shown. Non-standard residues stand in square brackets, D forms with d. Residues, ends and D or L forms follow the SMILES beside them. *: point of attachment. Tic = O=C(O)[C@@H]1Cc2ccccc2CN1; Boc = CC(C)(C)OC(=O)*

For the data set the following is noted: buffer; pH 7.4; 200.0 µM.
Compound `C=CCn1c(O)c(C(CC)=Nc2cccc(C(=O)O)c2)c(=O)[nH]c1=O` displayed a solubility (kinetic) of more than 51.5 µg/mL.
Compound `CC(=O)NC(CC(=O)O)c1ccc(F)cc1` (configuration not stated) yielded a kinetic solubility of more than 33.8 µg/mL.
The compound `CC(C)(C)NC(=O)CSc1nc(-c2ccc(F)cc2)cs1` came in with a kinetic solubility of 6.6 µg/mL (≈ 20.3 µM).
As to `Cc1cccc(C(=O)Nc2cccc3c2CCCC3)c1`, the solubility (kinetic) was found to be 0.8 µg/mL (≈ 3.01 µM).
`CCCC1(c2ccccc2)NC(=O)N(CC(=O)Nc2ccc3c(c2)OCCO3)C1=O` (configuration not stated): the kinetic solubility was 36 µg/mL (≈ 87.9 µM).
To `CCn1cc(C2=NC(CC(C)C)CO2)c2ccccc21` (configuration not stated) belongs 9.7 µg/mL (≈ 35.9 µM); to `Cc1cc2ccccc2cc1CN1CCCCC1`, 9.6 µg/mL (≈ 40.1 µM); to `N=C1SCC(=O)N1c1ccccc1Cl`, more than 34 µg/mL.
The compound `CCOC(=O)C(=O)c1c(-c2ccccc2)nc2ccccn12` had a kinetic solubility of 33.7 µg/mL (≈ 115 µM).
Compound `COc1ccccc1CNC(=O)c1ccc2c(c1)OCO2` gave a solubility (kinetic) of more than 42.8 µg/mL.
As for `CCNC(=O)CC1C(=O)N(c2ccc(C)cc2)C(=O)N1CCOC` (configuration not stated), the figure is more than 50 µg/mL; as for `Cc1ccc(NC(=O)Nc2ccc3c(c2)C(=O)OC3)cc1Cl`, less than 0.3 µg/mL.
`CCOC(=O)Cc1csc(NS(=O)(=O)c2ccc([N+](=O)[O-])cc2)n1` gave a solubility (kinetic) of more than 55.7 µg/mL.
In turn, `O=C(O)C1CCCCC1C(=O)Nc1ccc2c(c1)OCO2` (configuration not stated) returned a kinetic solubility of more than 43.7 µg/mL.
As for `C/C(=N\OC(=O)Nc1ccc(Cl)cc1)c1ccc(F)c(F)c1`, the figure is 5.2 µg/mL (≈ 16 µM); as for `CN(C)C(CNC(=O)c1ccc2ccccc2n1)c1ccccc1` (configuration not stated), 27.5 µg/mL (≈ 86.1 µM); as for `CCOc1ccc(C(=O)N2CCN(c3cccc(Cl)c3)CC2)cc1`, 14.3 µg/mL (≈ 41.5 µM).
Compound `COc1ccccc1C1=NOC(COC(=O)c2ccc([N+](=O)[O-])cc2)C1` (configuration not stated) gave a solubility (kinetic) of less than 0.4 µg/mL.
With `CC(=O)c1cnc(-c2ccccc2Cl)s1`, the kinetic solubility was 8 µg/mL (≈ 33.7 µM).
`CCOc1ccc(S(=O)(=O)N2CC(=O)Nc3ccccc32)cc1` came in with a kinetic solubility of 10.7 µg/mL (≈ 32.2 µM).
As for `COc1ccccc1C(=O)NCC(=O)Nc1cccnc1`, the figure is more than 42.8 µg/mL; as for `COc1ccc(NC(=O)CCC(=O)N/N=C/c2cccnc2)cc1`, more than 49 µg/mL.
As for `O=c1[nH]cccc1-c1nc2ccccc2n1Cc1cccc(F)c1`, the solubility (kinetic) came to 2.4 µg/mL (≈ 7.52 µM).
To `CCCCOc1cc(C(=O)OCCN(CC)CC)ccc1N` belongs 42.7 µg/mL (≈ 138 µM); to `CCOc1ccccc1NC(=O)COC(=O)c1nc2nccc(C)n2n1`, more than 53.3 µg/mL.
In the case of `O=C1N(Cc2cccc(Cl)c2)C[C@@H]2C[C@@H](c3ccccn3)N3CCC[C@@]123`, the kinetic solubility amounted to 39 µg/mL (≈ 106 µM).
To `Cn1ccnc1SCC(=O)c1ccc2ccccc2c1` belongs 35.8 µg/mL (≈ 127 µM); to `C=CCOC(=O)C1=C(C)NC(C)=C(C(=O)OCC=C)C1c1ccco1`, 4.5 µg/mL (≈ 13.1 µM).
With `CCc1ccc(C(=O)COC(=O)C2=NN(c3ccccc3)C(=O)CC2)cc1`, the kinetic solubility was more than 54.7 µg/mL.
To `CCCC/C=C1\CCc2c([nH]c3ccccc23)C1=O` belongs 2 µg/mL (≈ 7.89 µM); to `COc1ccc(OCC(=O)NCCNC(=O)c2cccnc2)cc1`, 47.8 µg/mL (≈ 145 µM); to `CN(CC(=O)Nc1ccccc1)CC(=O)Nc1ccc(F)cc1`, 30.7 µg/mL (≈ 97.4 µM).
As for `COc1cc(/C(C)=N/NC(=O)CSc2nnc(C)s2)ccc1O`, the solubility (kinetic) is more than 52.9 µg/mL.
As for `Cc1cc(O)ccc1NS(=O)(=O)c1ccc2c3c(cccc13)C(=O)N2`, the figure is 48.8 µg/mL (≈ 138 µM); as for `CCOC(=O)Cc1csc(NC(=O)CN2CCCCC2)n1`, 41.6 µg/mL (≈ 134 µM); as for `CCc1ccc(N=C2NC(=O)CS2)cc1`, 32.3 µg/mL (≈ 147 µM).
Regarding `CSc1nc(-c2ccccc2)nc(N2CCOCC2)c1C(C)=O`, the kinetic solubility was found to be 12 µg/mL (≈ 36.4 µM).
To `CC(C)(C)OC(=O)N1Cc2ccccc2C[C@H]1C(=O)N1CCC[C@H]1C(=O)O` (Boc-[Tic]-Pro-OH) belongs 49.9 µg/mL (≈ 133 µM); to `CC(=O)c1ccc2noc(-c3ccc(C)cc3)c2c1`, 26.2 µg/mL (≈ 104 µM); to `O=C1c2ccccc2C(=O)c2[nH]c(=O)[nH]c21`, more than 32.1 µg/mL.
As for `CC(CN1CCCC1)OC(=O)c1ccc(F)cc1.Cl` (configuration not stated), the kinetic solubility was more than 43.2 µg/mL.
Regarding `N#C/C(=C\c1ccccc1O)C(=O)Nc1ccccn1`, the kinetic solubility stood at 32.9 µg/mL (≈ 124 µM).
In turn, `CCC(C)Nc1nc(N)c([N+](=O)[O-])c(NC2CCCCC2)n1` (configuration not stated) came in with a kinetic solubility of less than 0.1 µg/mL.
As for `COc1cc(/C=C/C(=O)OCC(=O)Nc2cc(S(=O)(=O)N3CCOCC3)ccc2Cl)cc(OC)c1OC`, the figure is 5.3 µg/mL (≈ 9.55 µM); as for `O=C1NC2=C(C(=O)CCC2)C(c2ccccc2)N1` (configuration not stated), more than 36.3 µg/mL.
To `CCN(Cc1ccccc1)C1CCN(Cc2ccccc2)CC1` belongs 34.2 µg/mL (≈ 111 µM); to `CC(C)CC1NC(=O)N(CC(=O)Nc2cc([N+](=O)[O-])ccc2F)C1=O` (configuration not stated), more than 52.8 µg/mL; to `COc1ccc(/C(N)=N/O)c(OC)c1`, more than 29.4 µg/mL.
For the compound `Cc1cc(-c2ccccc2)oc(=O)c1NC(=O)c1ccccc1`, the solubility (kinetic) was less than 0.7 µg/mL.
As for `NS(=O)(=O)c1ccc(CCNC(=O)CN2CCCCCC2)cc1`, the figure is more than 50.9 µg/mL.
For `O=C(Nc1ccc(Br)cn1)c1cccc2ccccc12`, the kinetic solubility is 0.5 µg/mL (≈ 1.53 µM).
As for `COc1ccccc1NC(=O)Nc1ccccc1C#N`, the figure is 24.8 µg/mL (≈ 92.8 µM).

By kinetic solubility is commonly meant the concentration staying in solution when a stock, usually in DMSO, is diluted into the medium.

The values are drawn from PubChem BioAssay AID1996.
